Measurements: patent publication US8604061B2, “2-aminooxazolines as TAAR1 ligands” (Hoffmann-La Roche Inc., priority 2007, dated 2013)

molecular target: TAAR1 (Mus musculus, UniProt Q923Y8); test: TAAR1 radioligand binding, membranes of stably transfected HEK293 cells (mouse); details: not given
Description: For the construction of expression plasmids the coding sequences of human, rat and mouse TAAR 1 were amplified from genomic DNA essentially as described by Lindemann et al.. The Expand High Fidelity PCR System (Roche Diagnostics) was used with 1.5 mM Mg^2+ and purified PCR products were cloned into pCR2.1-TOPO cloning vector (Invitrogen) following the instructions of the manufacturer. PCR products were subcloned into the pIRESneo2 vector (BD Clontech, Palo Alto, Calif.), and expression vectors were sequence verified before introduction in cell lines.
HEK293 cells (ATCC #CRL-1573) were cultured essentially as described Lindemann et al. (2005). For the generation of stably transfected cell lines HEK293 cells were transfected with the pIRESneo2 expression plasmids containing the TAAR coding sequences (described above) with Lipofectamine 2000 (Invitrogen) according to the instructions of the manufacturer, and 24 hrs post transfection the culture medium was supplemented with 1 mg/ml G418 (Sigma, Buchs, Switzerland). After a culture period of about 10 d clones were isolated, expanded and tested for responsiveness to trace amines (all compounds purchased from Sigma) with the cAMP Biotrak Enzyme immunoassay (EIA) System (Amersham) following the non-acetylation EIA procedure provided by the manufacturer.
Cells at confluence were rinsed with ice-cold phosphate buffered saline without Ca^2+ and Mg^2+ containing 10 mM EDTA and pelleted by centrifugation at 1000 rpm for 5 min at 4° C. The pellet was then washed twice with ice-cold phosphate buffered saline and cell pellet was frozen immediately by immersion in liquid nitrogen and stored until use at −80° C. Cell pellet was then suspended in 20 ml HEPES-NaOH (20 mM), pH 7.4 containing 10 mM EDTA, and homogenized with a Polytron (PT 3000, Kinematica) at 10,000 rpm for 10 s. The homogenate was centrifuged at 48,000×g for 30 min at 4° C. and the pellet resuspended in 20 ml HEPES-NaOH (20 mM), pH 7.4 containing 0.1 mM EDTA (buffer A), and homogenized with a Polytron at 10,000 rpm for 10 s. The homogenate was then centrifuged at 48,000×g for 30 min at 4° C. and the pellet resuspended in 20 ml buffer A, and homogenized with a Polytron at 10,000 rpm for 10 s. Protein concentration was determined by the method of Pierce (Rockford, Ill.). The homogenate was then centrifuged at 48,000×g for 10 min at 4° C., resuspended in HEPES-NaOH (20 mM), pH 7.0 including MgCl2 (10 mM) and […] homogenized with a Polytron at 10,000 rpm for 10 s.
Binding assay was performed at 4° C. in a final volume of 1 ml, and with an incubation time of 30 min. […] Non-specific binding was defined as the amount of [^3H]-rac-2-(1,2,3,4-tetrahydro-1-naphthyl)-2-imidazoline bound in the presence of the appropriate unlabelled ligand (10 μM). Competing ligands were tested in a wide range of concentrations (10 pM-30 μM). […] Each experiment was performed in duplicate. All incubations were terminated by rapid filtration through UniFilter-96 plates (Packard Instrument Company) and glass filter GF/C, pre-soaked for at least 2 h in polyethylenimine 0.3%, and using a Filtermate 96 Cell Harvester (Packard Instrument Company). The tubes and filters were then washed 3 times with 1 ml aliquots of cold buffer B. Filters were not dried and soaked in Ultima gold (45 μl/well, Packard Instrument Company) and bound radioactivity was counted by a TopCount Microplate Scintillation Counter (Packard Instrument Company).

Compared with Cc1cc(C2(C)COC(N)=N2)ccc1Cl (racemic) [Example 263, (RS)-4-(4-Chloro-3-methyl-phenyl)-4-methyl-4,5-dihydro-oxazol-2-ylamine], CC1(c2cc(Cl)ccc2Cl)COC(N)=N1 (racemic) [Example 299, (RS)-4-(2,5-Dichloro-phenyl)-4-methyl-4,5-dihydro-oxazol-2-ylamine] is 1.8-fold higher in Ki: 0.0023 µM for the first, 0.0042 µM for the second. The first binds more tightly here.

Going from CC1(c2cc(F)c(Cl)cc2F)COC(N)=N1 (racemic) [Example 271, (RS)-4-Methyl-4-(4-chloro-2,5-difluoro-phenyl)-4,5-dihydro-oxazol-2-ylamine] to NC1=N[C@@H](c2ccc(F)cc2F)CO1 [37b (S), (S)-4-(2,4-Difluoro-phenyl)-4,5-dihydro-oxazol-2-ylamine], the Ki rises from 0.0013 µM to 0.0087 µM (6.7-fold). The first binds more tightly here.

Going from Cc1ccc(Cl)cc1C1COC(N)=N1 (racemic) [Example 272, (RS)-4-(5-Chloro-2-methyl-phenyl)-4,5-dihydro-oxazol-2-ylamine] to CCc1cc(Cl)ccc1C1COC(N)=N1 (racemic) [Example 344, (RS)-4-(4-Chloro-2-ethyl-phenyl)-4,5-dihydro-oxazol-2-ylamine], the Ki rises from 0.0013 µM to 0.0025 µM (1.9-fold).

Going from NC1=NC(c2ccc(Br)cc2Cl)CO1 (racemic) [Example 291, (RS)-4-(4-Bromo-2-chloro-phenyl)-4,5-dihydro-oxazol-2-ylamine] to NC1=NC(c2ccc(Br)cc2F)CO1 (racemic) [Example 349, (RS)-4-(4-Bromo-2-fluoro-phenyl)-4,5-dihydro-oxazol-2-ylamine], the Ki rises from 0.0008 µM to 0.0023 µM (2.9-fold).

Going from NC1=NC(c2ccc(Br)cc2C(F)(F)F)CO1 (racemic) [Example 302, (RS)-4-(4-Bromo-2-trifluoromethyl-phenyl)-4,5-dihydro-oxazol-2-ylamine] to NC1=NC(c2cccc(F)c2C(F)(F)F)CO1 (racemic) [Example 371, (RS)-4-(3-Fluoro-2-trifluoromethyl-phenyl)-4,5-dihydro-oxazol-2-ylamine], the Ki rises from 0.0017 µM to 0.0096 µM (5.6-fold). The first binds more tightly here.

Going from NC1=NC(c2ccc(Br)c(Cl)c2)CO1 (racemic) [Example 326, (RS)-4-(4-Bromo-3-chloro-phenyl)-4,5-dihydro-oxazol-2-ylamine] to Cc1ccc(C2COC(N)=N2)cc1Cl (racemic) [Example 351, (RS)-4-(3-Chloro-4-methyl-phenyl)-4,5-dihydro-oxazol-2-ylamine], the Ki rises from 0.001 µM to 0.0024 µM (2.4-fold).

Cc1cc(F)ccc1C1COC(N)=N1 (racemic) [Example 337, (RS)-4-(4-Fluoro-2-methyl-phenyl)-4,5-dihydro-oxazol-2-ylamine] and Cc1c(F)cccc1C1COC(N)=N1 (racemic) [Example 365, (RS)-4-(3-Fluoro-2-methyl-phenyl)-4,5-dihydro-oxazol-2-ylamine] are within 1.5-fold of each other in Ki: 0.0034 µM for the first, 0.0029 µM for the second.

NC1=NC(c2ccc(Cl)cc2C2CC2)CO1 (racemic) [Example 359, (RS)-4-(4-Chloro-2-cyclopropyl-phenyl)-4,5-dihydro-oxazol-2-ylamine] and Cc1ccccc1[C@H]1COC(N)=N1 [39a (S), (S)-4-o-Tolyl-4,5-dihydro-oxazol-2-ylamine] are within 1.5-fold of each other in Ki: 0.0021 µM for the first, 0.0025 µM for the second.

For NC1=N[C@@H](c2ccc(-c3ccccc3)cc2)CO1 [Example 21 (S), (S)-4-Biphenyl-4-yl-4,5-dihydro-oxazol-2-ylamine], the Ki was 0.0008 µM.

same assay, conditions: mouse/rat; cell not marked 'rat'; radioligand [3H]-rac-2-(1,2,3,4-tetrahydro-1-naphthyl)-2-imidazoline, 4° C.; read-out: Ki (μM) mouse/rat

CC1(c2ccc(F)c(F)c2F)COC(N)=N1 (racemic) [Example 269, (RS)-4-Methyl-4-(2,3,4-trifluoro-phenyl)-4,5-dihydro-oxazol-2-ylamine] and CC1(c2cc(F)c(F)c(F)c2)COC(N)=N1 (racemic) [Example 273, (RS)-4-Methyl-4-(3,4,5-trifluoro-phenyl)-4,5-dihydro-oxazol-2-ylamine] are within 1.5-fold of each other in Ki: 0.0083 µM for the first, 0.0095 µM for the second.

Going from Cc1cc(C2(C)COC(N)=N2)c(F)cc1Cl (racemic) [Example 274, (RS)-4-(4-Chloro-2-fluoro-5-methyl-phenyl)-4-methyl-4,5-dihydro-oxazol-2-ylamine] to CC1(c2ccc(Cl)cc2Cl)COC(N)=N1 (racemic) [Example 294, (RS)-4-(2,4-Dichloro-phenyl)-4-methyl-4,5-dihydro-oxazol-2-ylamine], the Ki rises from 0.0011 µM to 0.0038 µM (3.5-fold).

NC1=NC(CCC2CCCCC2)CO1 (stereo in doubt) [Example 332, (S)-4-(2-Cyclohexyl-ethyl)-4,5-dihydro-oxazol-2-ylamine] and NC1=N[C@H](CCc2ccccc2)CO1 [80 (R), (R)-4-phenethyl-4,5-dihydro-oxazol-2-ylamine] are within 1.5-fold of each other in Ki: 0.0061 µM for the first, 0.0083 µM for the second.

First: C[C@H](C[C@H]1COC(N)=N1)c1ccccc1 [82 (S, R), (S)-4-((R)-2-Phenyl-propyl)-4,5-dihydro-oxazol-2-ylamine]
Second: C[C@@H](C[C@H]1COC(N)=N1)c1ccccc1 [82 (S, S), (S)-4-((S)-2-phenyl-propyl)-4,5-dihydro-oxazol-2-ylamine]
The Ki of the first is 5-fold lower: 0.0016 µM for the first, 0.008 µM for the second.

Compared with NC1=N[C@@H](c2ccccc2Cl)CO1 [Example 4, (S)-4-(2-Chloro-phenyl)-4,5-dihydro-oxazol-2-ylamine], NC1=N[C@@H](Cc2ccccc2Cl)CO1 [Example 60, (S)-4-(2-Chloro-benzyl)-4,5-dihydro-oxazol-2-ylamine] is 3.9-fold higher in Ki: 0.0012 µM for the first, 0.0047 µM for the second. The first binds more tightly here.

Going from NC1=N[C@@H](c2cccc(F)c2F)CO1 [Example 9, (S)-4-(2,3-Difluoro-phenyl)-4,5-dihydro-oxazol-2-ylamine] to NC1=N[C@@H](c2ccc(F)c(Br)c2F)CO1 [Example 29 (S), (S)-4-(3-Bromo-2,4-difluoro-phenyl)-4,5-dihydro-oxazol-2-ylamine], the Ki rises from 0.0034 µM to 0.0054 µM (1.6-fold).

Compared with NC1=N[C@@H](Cc2cccc3ccccc23)CO1 [Example 48, (S)-4-Naphthalen-1-ylmethyl-4,5-dihydro-oxazol-2-ylamine], NC1=N[C@@H](Cc2ccc3ccccc3c2)CO1 [Example 49, (S)-4-Naphthalen-2-ylmethyl-4,5-dihydro-oxazol-2-ylamine] is 27-fold higher in Ki: 0.0002 µM for the first, 0.0054 µM for the second.

First: NC1=N[C@@H](Cc2cccc(C(F)(F)F)c2)CO1 [Example 63, (S)-4-(3-Trifluoromethyl-benzyl)-4,5-dihydro-oxazol-2-ylamine]
Second: NC1=N[C@@H](CCc2ccc(F)c(F)c2)CO1 [Example 89, (S)-4-[2-(3,4-Difluoro-phenyl)-ethyl]-4,5-dihydro-oxazol-2-ylamine]
The Ki of the first is 6.6-fold higher: 0.0086 µM for the first, 0.0013 µM for the second.

NC1=N[C@@H](CCc2ccccc2)CO1 [Example 80 (S), (S)-4-Phenethyl-4,5-dihydro-oxazol-2-ylamine] and NC1=N[C@@H](CCc2ccc(F)cc2)CO1 [Example 85, (S)-4-[2-(4-Fluoro-phenyl)-ethyl]-4,5-dihydro-oxazol-2-ylamine] are within 1.5-fold of each other in Ki: 0.0008 µM for the first, 0.0011 µM for the second.

Compared with C[C@]1(CCc2ccccc2)COC(N)=N1 [Example 81 (S), (S)-4-Methyl-4-phenethyl-4,5-dihydro-oxazol-2-ylamine], NC1=N[C@@H](c2ccc3ccccc3c2)CO1 [Example 103, (S)-4-Naphthalen-2-yl-4,5-dihydro-oxazol-2-ylamine] is 16-fold lower in Ki: 0.0064 µM for the first, 0.0004 µM for the second. The second binds more tightly here.

COc1cc(CC[C@H]2COC(N)=N2)ccc1F [Example 86, (S)-4-[2-(4-Fluoro-3-methoxy-phenyl)-ethyl]-4,5-dihydro-oxazol-2-ylamine] and NC1=N[C@@H](CCc2ccc(F)cc2F)CO1 [Example 88] are within 1.5-fold of each other in Ki: 0.0008 µM for the first, 0.001 µM for the second.

NC1=N[C@@H](c2ccc(Cl)c(Cl)c2)CO1 [Example 91, (S)-4-(3,4-Dichloro-phenyl)-4,5-dihydro-oxazol-2-ylamine] and NC1=N[C@@H](c2ccc(Br)cc2)CO1 [Example 105, (S)-4-(4-Bromo-phenyl)-4,5-dihydro-oxazol-2-ylamine] are within 1.5-fold of each other in Ki: 0.0006 µM for the first, 0.0007 µM for the second.

For NC1=N[C@@H](c2cc(F)ccc2F)CO1 [Example 101, (S)-4-(2,5-Difluoro-phenyl)-4,5-dihydro-oxazol-2-ylamine], the Ki was 0.0034 µM.
